Laboratory results reported in publication PMC8224398, “SARS-CoV-2 mutations in MHC-I-restricted epitopes evade CD8^+ T cell responses” (Science Immunology, 2021).

Columns and labels:
[1] = target: HLA-A*02:01 (Homo sapiens, UniProt P04439, D140Y/D185E/D98H/E176V/E277Q/G131W/G231S/I119V/I121R/I166T/I218V/L300P/L318F/N151K/N90K/P208A/P217A/Q86G/Q94H/R138H/R169H/T345S); format: binding
[2] = tested on: autologous EBV+ B cells pulsed with peptide; format: cell-based, human; settings: 5 h at 37°C
[3] = target: HLA-B*40:01 (Homo sapiens, UniProt P01889, A65T/A93T/A95T/D138N/D98Y/E176V/E69K/N87E/Q56L/Q94N/R180L/S121R/S35A/S48T/T167S/V36M/W171L/Y33H/Y91S); format: binding

| Sequence | binding to HLA-A*02:01 (thermal stability of the peptide-MHC-I complex, DSF) [1] | killing of EBV+ B cells pulsed with the peptide by wild type YLQ expanded PBMCs [2] | binding to recombinant HLA-B*40:01 (DSF) [3] | killing of peptide-pulsed EBV+ B cells by PBMCs expanded with the peptide [2] |
| --- | --- | --- | --- | --- |
| LALLLLDRL | did neither observe binding | – | – | – |
| LFFNKVTLA | non-binder | – | – | – |
| LQLPQGTTL | did neither observe binding | – | – | – |
| YLQPRTFLL [YLQ wildtype] | – | specific killing | – | – |
| MEVTPSGTWL | not to HLA-A*02:01 | – | specific binding | – |
| YFQPRTFLL [YLQ mutant] | weak binder | failed to kill | – | failed to kill both wild type and mutant peptide pulsed EBV^+ B cells |
